Results published in ChEMBL document CHEMBL5360622, “Leucettinibs, a Class of DYRK/CLK Kinase Inhibitors Inspired by the Marine Sponge Natural Product Leucettamine B” (J Med Chem, 2023).

Experiments:
[1] = target: Dual specificity protein kinase CLK2 (Homo sapiens, UniProt P49760)
[2] = target: Glycogen synthase kinase-3 beta (Homo sapiens, UniProt P49841); type: cell-based, Sf9
[3] = target: T1, Dual specificity tyrosine-phosphorylation-regulated kinase 2 (Homo sapiens, UniProt Q92630)
T1 sequence (Q92630 whole entry): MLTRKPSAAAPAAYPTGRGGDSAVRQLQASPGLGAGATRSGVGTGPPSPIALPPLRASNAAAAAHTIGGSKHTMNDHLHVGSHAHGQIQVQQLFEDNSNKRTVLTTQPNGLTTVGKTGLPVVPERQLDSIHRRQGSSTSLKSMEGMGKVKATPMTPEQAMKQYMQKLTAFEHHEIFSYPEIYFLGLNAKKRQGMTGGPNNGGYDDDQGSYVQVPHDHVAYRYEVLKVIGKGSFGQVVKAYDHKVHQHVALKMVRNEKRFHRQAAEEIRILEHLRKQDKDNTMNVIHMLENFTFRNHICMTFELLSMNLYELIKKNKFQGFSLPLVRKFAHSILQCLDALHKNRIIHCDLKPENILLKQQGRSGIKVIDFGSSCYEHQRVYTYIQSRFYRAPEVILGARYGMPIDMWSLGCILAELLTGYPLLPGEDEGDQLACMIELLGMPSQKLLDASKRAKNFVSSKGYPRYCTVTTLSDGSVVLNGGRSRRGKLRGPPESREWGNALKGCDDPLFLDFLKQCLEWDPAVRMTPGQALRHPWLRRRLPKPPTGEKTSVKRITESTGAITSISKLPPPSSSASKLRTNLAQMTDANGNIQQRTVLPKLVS

[4] = target: Cyclin-dependent kinase 5/CDK5 activator 1 (Homo sapiens, UniProt Q00535); type: cell-based, Sf9
[5] = target: T2, Dual specificity tyrosine-phosphorylation-regulated kinase 3 (Homo sapiens, UniProt O43781)
T2 sequence (O43781 whole entry): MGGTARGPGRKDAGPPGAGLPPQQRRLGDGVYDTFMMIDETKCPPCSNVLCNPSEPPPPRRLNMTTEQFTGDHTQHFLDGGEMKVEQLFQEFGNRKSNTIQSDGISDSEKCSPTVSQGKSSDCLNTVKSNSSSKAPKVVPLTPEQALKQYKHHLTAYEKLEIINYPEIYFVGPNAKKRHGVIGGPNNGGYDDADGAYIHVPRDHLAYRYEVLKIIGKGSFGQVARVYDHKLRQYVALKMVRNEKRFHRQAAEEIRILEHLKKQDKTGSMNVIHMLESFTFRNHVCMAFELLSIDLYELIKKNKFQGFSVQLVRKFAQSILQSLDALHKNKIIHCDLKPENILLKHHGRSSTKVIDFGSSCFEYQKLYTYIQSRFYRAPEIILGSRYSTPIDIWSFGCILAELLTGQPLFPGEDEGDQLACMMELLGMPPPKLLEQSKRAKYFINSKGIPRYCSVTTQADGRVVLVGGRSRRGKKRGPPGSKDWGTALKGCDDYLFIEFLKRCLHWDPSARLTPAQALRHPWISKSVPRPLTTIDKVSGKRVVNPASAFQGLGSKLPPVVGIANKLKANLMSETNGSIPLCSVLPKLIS

[6] = target: Dual specificity protein kinase CLK3 (Homo sapiens, UniProt P49761); type: cell-based, Sf9
[7] = target: T3, Dual specificity tyrosine-phosphorylation-regulated kinase 4 (Homo sapiens, UniProt Q9NR20)
T3 sequence (Q9NR20 whole entry): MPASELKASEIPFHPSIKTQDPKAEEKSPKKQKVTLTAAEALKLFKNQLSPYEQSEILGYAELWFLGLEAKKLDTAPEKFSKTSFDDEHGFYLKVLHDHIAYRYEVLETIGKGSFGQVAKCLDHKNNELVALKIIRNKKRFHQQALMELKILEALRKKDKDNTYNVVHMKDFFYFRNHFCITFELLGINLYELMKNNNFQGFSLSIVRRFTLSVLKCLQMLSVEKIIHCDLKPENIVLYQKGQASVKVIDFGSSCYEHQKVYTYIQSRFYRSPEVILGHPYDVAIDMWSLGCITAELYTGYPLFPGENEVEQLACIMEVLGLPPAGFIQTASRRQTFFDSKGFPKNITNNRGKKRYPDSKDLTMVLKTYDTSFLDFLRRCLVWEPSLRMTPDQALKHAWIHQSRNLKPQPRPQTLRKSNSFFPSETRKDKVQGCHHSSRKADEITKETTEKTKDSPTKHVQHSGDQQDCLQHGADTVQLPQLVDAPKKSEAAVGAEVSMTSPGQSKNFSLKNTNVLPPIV

[8] = target: Casein kinase I isoform epsilon (Homo sapiens, UniProt P49674)
Casein kinase I isoform epsilon, sequence (P49674 whole entry, canonical isoform): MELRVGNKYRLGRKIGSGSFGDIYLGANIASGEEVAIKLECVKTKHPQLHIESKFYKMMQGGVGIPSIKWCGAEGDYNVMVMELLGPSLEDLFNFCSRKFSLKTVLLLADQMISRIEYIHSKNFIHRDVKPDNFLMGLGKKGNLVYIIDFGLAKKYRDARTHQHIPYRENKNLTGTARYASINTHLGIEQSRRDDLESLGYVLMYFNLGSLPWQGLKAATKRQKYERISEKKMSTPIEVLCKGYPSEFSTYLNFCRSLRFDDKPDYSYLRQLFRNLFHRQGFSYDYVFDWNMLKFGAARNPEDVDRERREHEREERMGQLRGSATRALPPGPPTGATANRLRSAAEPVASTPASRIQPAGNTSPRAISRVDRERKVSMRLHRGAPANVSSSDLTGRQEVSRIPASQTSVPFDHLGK

Cyclin-dependent kinase 5/CDK5 activator 1, sequence (Q00535 whole entry): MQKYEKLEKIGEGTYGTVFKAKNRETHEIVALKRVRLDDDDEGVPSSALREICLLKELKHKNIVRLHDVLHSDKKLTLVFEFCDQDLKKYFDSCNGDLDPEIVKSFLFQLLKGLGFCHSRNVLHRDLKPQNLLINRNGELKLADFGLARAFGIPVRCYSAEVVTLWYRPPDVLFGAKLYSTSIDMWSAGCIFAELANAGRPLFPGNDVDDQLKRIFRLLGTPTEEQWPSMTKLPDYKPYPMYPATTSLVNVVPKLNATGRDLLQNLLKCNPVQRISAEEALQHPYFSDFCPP
Cyclin-dependent kinase 5/CDK5 activator 1, sequence (Q15078 whole entry, further chain): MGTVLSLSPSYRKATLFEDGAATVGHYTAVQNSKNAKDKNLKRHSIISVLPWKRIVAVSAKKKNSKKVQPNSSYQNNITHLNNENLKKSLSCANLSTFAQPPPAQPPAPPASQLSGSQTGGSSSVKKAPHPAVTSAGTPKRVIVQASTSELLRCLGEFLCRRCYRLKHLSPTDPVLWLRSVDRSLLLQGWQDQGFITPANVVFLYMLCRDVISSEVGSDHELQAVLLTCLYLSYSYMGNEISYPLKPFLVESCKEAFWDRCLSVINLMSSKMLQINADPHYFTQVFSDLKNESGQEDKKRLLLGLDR
Dual specificity protein kinase CLK2, sequence (P49760 whole entry): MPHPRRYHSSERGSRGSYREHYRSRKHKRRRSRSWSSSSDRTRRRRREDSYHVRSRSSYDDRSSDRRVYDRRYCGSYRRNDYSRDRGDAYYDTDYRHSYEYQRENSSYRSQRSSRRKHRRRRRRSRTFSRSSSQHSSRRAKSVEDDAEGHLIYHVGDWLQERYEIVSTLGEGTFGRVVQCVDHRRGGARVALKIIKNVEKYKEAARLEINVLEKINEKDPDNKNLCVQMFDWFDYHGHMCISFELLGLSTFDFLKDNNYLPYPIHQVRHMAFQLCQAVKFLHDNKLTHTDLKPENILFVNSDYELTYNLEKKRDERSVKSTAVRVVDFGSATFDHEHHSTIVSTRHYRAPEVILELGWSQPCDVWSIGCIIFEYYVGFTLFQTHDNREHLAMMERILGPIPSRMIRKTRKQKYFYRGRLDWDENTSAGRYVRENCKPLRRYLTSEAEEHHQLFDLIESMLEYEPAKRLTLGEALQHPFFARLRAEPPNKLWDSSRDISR
Glycogen synthase kinase-3 beta, sequence (P49841 whole entry): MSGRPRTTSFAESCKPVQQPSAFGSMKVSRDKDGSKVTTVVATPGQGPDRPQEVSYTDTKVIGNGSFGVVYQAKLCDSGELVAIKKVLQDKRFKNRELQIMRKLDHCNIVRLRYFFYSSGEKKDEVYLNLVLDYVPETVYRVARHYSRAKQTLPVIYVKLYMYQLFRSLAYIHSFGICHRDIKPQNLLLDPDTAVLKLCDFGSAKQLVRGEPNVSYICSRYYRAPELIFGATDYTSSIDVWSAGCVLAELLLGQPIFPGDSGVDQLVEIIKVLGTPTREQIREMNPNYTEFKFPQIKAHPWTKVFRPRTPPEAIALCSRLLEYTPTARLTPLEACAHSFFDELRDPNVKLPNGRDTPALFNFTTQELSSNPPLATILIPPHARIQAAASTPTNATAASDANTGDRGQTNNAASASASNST
Dual specificity protein kinase CLK3, sequence (P49761 whole entry): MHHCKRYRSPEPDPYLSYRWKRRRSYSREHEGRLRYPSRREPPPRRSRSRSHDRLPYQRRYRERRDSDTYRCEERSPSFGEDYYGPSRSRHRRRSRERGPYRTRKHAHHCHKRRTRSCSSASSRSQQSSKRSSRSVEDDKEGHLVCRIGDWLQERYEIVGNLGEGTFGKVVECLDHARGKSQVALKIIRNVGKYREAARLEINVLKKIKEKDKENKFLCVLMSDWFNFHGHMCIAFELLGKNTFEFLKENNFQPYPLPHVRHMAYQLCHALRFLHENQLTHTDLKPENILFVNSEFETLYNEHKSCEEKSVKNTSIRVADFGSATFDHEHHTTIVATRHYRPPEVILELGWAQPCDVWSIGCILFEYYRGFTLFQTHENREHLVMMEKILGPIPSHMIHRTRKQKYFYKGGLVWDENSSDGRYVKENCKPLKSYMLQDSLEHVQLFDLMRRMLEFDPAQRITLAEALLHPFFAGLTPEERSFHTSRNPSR

SMILES	IC50 [1]	IC50 [2]	IC50 [3]	IC50 [4]	IC50 [5]	IC50 [6]	IC50 [7]	IC50 [8]
O=C1NC(Nc2cccc(OC(F)F)c2)=N/C1=C\c1ccc2ncsc2c1	134 nM	3680 nM	760 nM	> 10000 nM	706 nM	710 nM	2730 nM	
O=C1NC(NC2CCCCC2(F)F)=N/C1=C\c1ccc2ncsc2c1 (racemic)	28 nM	5560 nM		> 10000 nM	119 nM	127 nM	143 nM	> 10000 nM
O=C1NC(NC2CCCSC2)=N/C1=C\c1ccc2ncsc2c1 (racemic)	37 nM	7220 nM	124 nM	2490 nM	335 nM	107 nM	246 nM	> 10000 nM
O=C1NC(NCC(O)Cc2ccccc2)=N/C1=C\c1ccc2ncsc2c1 (racemic)	89 nM	4810 nM	527 nM	> 10000 nM	1170 nM	472 nM	288 nM	> 10000 nM
O=C1NC(NC2CCCC(F)(F)C2)=N/C1=C\c1ccc2ncsc2c1 (racemic)	24 nM	5690 nM	391 nM	2380 nM	296 nM	175 nM	321 nM	8460 nM
O=C1NC(NCc2ccncc2)=N/C1=C\c1ccc2ncsc2c1	109 nM	3260 nM	613 nM	> 10000 nM	1030 nM	1230 nM	1240 nM	> 10000 nM
O=C1NC(NC2CCC(F)(F)C2)=N/C1=C\c1ccc2ncsc2c1 (racemic)	39 nM	4690 nM	389 nM	5500 nM	299 nM	173 nM	326 nM	> 10000 nM
CC1(C)CCC(NC2=N/C(=C\c3ccc4ncsc4c3)C(=O)N2)CO1 (racemic)	102 nM	4750 nM	260 nM	> 10000 nM	692 nM	357 nM	574 nM	> 10000 nM
CC(C)(C)OC(=O)N1CCC(CNC2=N/C(=C\c3ccc4ncsc4c3)C(=O)N2)CC1	2200 nM	5270 nM		> 10000 nM	> 10000 nM	8620 nM	> 10000 nM	> 10000 nM
O=C1NC(N[C@@H]2CCCC[C@H](O)C2)=N/C1=C\c1ccc2ncsc2c1 (racemic)		6040 nM	174 nM	> 10000 nM	753 nM	646 nM	698 nM	
O=C1NC(N[C@H]2CCCOC2)=N/C1=C\c1ccc2ncsc2c1	162 nM	> 10000 nM	109 nM	5900 nM	611 nM	119 nM	570 nM	> 10000 nM
CC1(NC2=N/C(=C\c3ccc4ncsc4c3)C(=O)N2)CCNC1=O (racemic)	56 nM	6280 nM	189 nM	> 10000 nM	592 nM	532 nM	591 nM	> 10000 nM
O=C1NC(Nc2ccccn2)=N/C1=C\c1ccc2ncsc2c1	117 nM	1660 nM	256 nM	> 10000 nM	350 nM	211 nM		> 10000 nM
C[C@@H]1[C@H]2C[C@@H](C[C@H]1NC1=N/C(=C\c3ccc4ncsc4c3)C(=O)N1)C2(C)C		> 10000 nM		> 10000 nM	1010 nM	795 nM	719 nM	> 10000 nM
CO[C@@H]1CCCC[C@H]1NC1=N/C(=C\c2ccc3ncsc3c2)C(=O)N1	310 nM	> 10000 nM	342 nM	> 10000 nM	1360 nM	382 nM	551 nM	
O=C1NC(NCc2ccccc2C(F)(F)F)=N/C1=C\c1ccc2ncsc2c1	15 nM	6920 nM		> 10000 nM	434 nM	135 nM	2550 nM	> 10000 nM
CN1CCN(c2cnc(NC3=N/C(=C\c4ccc5ncsc5c4)C(=O)N3)nc2)CC1	997 nM	> 10000 nM	7480 nM	> 10000 nM	450 nM	5100 nM	> 10000 nM	> 10000 nM
O=C1NC(NC(CO)C2CCCCC2)=N/C1=C\c1ccc2ncsc2c1 (racemic)	80 nM	4160 nM	1380 nM	> 10000 nM	695 nM	1090 nM	410 nM	> 10000 nM
Cc1csc(CNC2=N/C(=C\c3ccc4ncsc4c3)C(=O)N2)n1	33 nM	2150 nM		> 10000 nM	1800 nM	376 nM	954 nM	> 10000 nM
O=C1NC(NCC(O)C2CCCCC2)=N/C1=C\c1ccc2ncsc2c1 (racemic)	46 nM	3080 nM	1090 nM	> 10000 nM	357 nM	299 nM	319 nM	6930 nM
O=C1NC(NC2CC3CCC2C3)=N/C1=C\c1ccc2ncsc2c1 (racemic)	127 nM	3260 nM	240 nM	> 10000 nM	337 nM	143 nM	260 nM	> 10000 nM
Cc1ccc(CNC2=N/C(=C\c3ccc4ncsc4c3)C(=O)N2)c(C)c1		> 10000 nM		> 10000 nM	4200 nM	518 nM	9220 nM	> 10000 nM
CO[C@H]1CCCC[C@@H]1NC1=N/C(=C\c2ccc3ncsc3c2)C(=O)N1	100 nM	8750 nM	777 nM	> 10000 nM	1200 nM	628 nM	439 nM	
O=C1NC(N[C@@H](CO)CC2CCC2)=N/C1=C\c1ccc2ncsc2c1		2410 nM	1910 nM	> 10000 nM	1250 nM	720 nM	1670 nM	> 10000 nM
O=C1NC(NC2CC23CCCCC3)=N/C1=C\c1ccc2ncsc2c1 (configuration not stated)		854 nM	355 nM	> 10000 nM	343 nM	341 nM	938 nM	> 10000 nM
O=C1NC(N[C@@H]2CCCC[C@@H](O)C2)=N/C1=C\c1ccc2ncsc2c1 (racemic)		4370 nM	258 nM	> 10000 nM	706 nM	309 nM	1250 nM	
CO[C@H]1CCCC[C@H]1NC1=N/C(=C\c2ccc3ncsc3c2)C(=O)N1 (racemic)	648 nM	9540 nM	1570 nM	> 10000 nM	1060 nM	1130 nM	731 nM	
